Key:
[1] = tested on: human acute monocytic leukemia cell line MV-4-11; test: Assay 2 (Cell Proliferation Assay), ATP quantitation (CellTiter-Glo); format: cell-based; details: Homo sapiens, MV4-11, 72 h, MV-4-11 cells, read-out: Assay 2 (EC50, inhibition of cell proliferation)
Protocol: Potencies of inhibitor compounds against cell proliferation was assessed against the human acute monocytic leukemia cell line MV-4-11 (ATCC® CRL-9591™) based on ATP quantitation. MV-4-11 cells or toxicity control HL-60 cells (ATCC® CCL-240™) were incubated in 96-well tissue culture plates (1.67×10^4 cells in 200 μL culture media containing 10% FBS per well) with or without test compound for 72 h at 37° C., 5% CO2. After incubation, each well was mixed by pipetting and 95 μL from each well was transferred to a well in 96-well black OptiPlate® plates (PerkinElmer). An equal volume of CellTiter-Glo® Luminescent Cell Viability Assay reagent (Promega) was added to each well, followed by mixing for 5 min on an orbital plate shaker. Luminescence was measured on a Wallac EnVision 2104 Multilabel Reader (PerkinElmer) to quantitate ATP. Percent inhibition of cell proliferation by test compounds was calculated based on uninhibited cell growth (DMSO) versus cells treated with a potent menin inhibitor at a concentration yielding at least 100×LD50.

[2] = target: T1, menin/MLL binding (biotinylated wild-type or mutated menin and MLL-AF9 fusion protein) (Homo sapiens, UniProt O00255); test: Assay 1 (Binding Assay): AlphaLISA menin/MLL binding; details: 5 nM biotinylated menin, MLL-AF9-FLAG lysate
T1 construct: biotinylated (1) wild-type menin or (2) mutated menin (described in Nature (2012) Vol. 482, pp. 542-548); fused on or other part: Biotin attached chemically (Sulfo-NHS-Biotin); no fused second protein is printed for menin
T1 sequence (O00255 1-459 limits assumed): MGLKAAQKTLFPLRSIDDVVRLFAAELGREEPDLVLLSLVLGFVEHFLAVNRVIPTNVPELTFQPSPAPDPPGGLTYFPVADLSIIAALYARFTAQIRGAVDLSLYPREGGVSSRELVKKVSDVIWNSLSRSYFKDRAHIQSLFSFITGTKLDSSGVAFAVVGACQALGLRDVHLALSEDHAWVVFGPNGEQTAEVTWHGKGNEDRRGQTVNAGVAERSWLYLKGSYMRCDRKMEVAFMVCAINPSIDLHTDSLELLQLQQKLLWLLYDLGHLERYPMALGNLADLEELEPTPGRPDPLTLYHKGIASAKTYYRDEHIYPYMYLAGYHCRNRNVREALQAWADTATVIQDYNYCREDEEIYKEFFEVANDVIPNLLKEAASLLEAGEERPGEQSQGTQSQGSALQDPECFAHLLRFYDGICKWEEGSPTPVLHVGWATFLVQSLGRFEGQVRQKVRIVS
Procedure, shortened: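 Biotinylated E. coli-expressed menin (wild-type or mutant), 5 nM, incubated 30 min RT with compound and HEK293 lysate of MLL1-1,396–AF9-FLAG in pH 7.4 Tris buffer, 5% DMSO, 1 mM DTT. Anti-FLAG acceptor and streptavidin donor beads added, 60 min RT, AlphaLISA signal read. IC50 from four-parameter fit of % inhibition.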

EC50 [1]	IC50 [2]	Structure (SMILES)
< 100 nM	< 100 nM	CC(C)N(CCO)C(=O)c1cc(F)ccc1-n1cc(C2CCN(Cc3ccccc3)CC2)c2ccncc21 [Example 36, 2-(3-(1-benzylpiperidin-4-yl)-1H-pyrrolo[2,3-c]pyridin-1-yl)-5-fluoro-N-(2-hydroxyethyl)-N-isopropylbenzamide]
100 to 1000 nM	< 100 nM	CC(C)N(C)C(=O)c1cc(F)ccc1-n1cc(C2CCN(CCc3ccc(C(C)(C)C#N)cc3)CC2)c2ccncc21 [Example 29, 2-(3-(1-(4-(2-cyanopropan-2-yl)phenethyl)piperidin-4-yl)-1H-pyrrolo[2,3-c]pyridin-1-yl)-5-fluoro-N-isopropyl-N-methylbenzamide]
< 100 nM	< 100 nM	CC(C)N(C)C(=O)c1cc(F)ccc1-n1cc(C2CCCN(Cc3ccc4[nH]c(=O)[nH]c4c3)C2)c2ccncc21 (stereo not shown) [Example 43, 5-fluoro-N-isopropyl-N-methyl-2-(3-(1-((2-oxo-2,3-dihydro-1H-benzo[d]imidazol-5-yl)methyl)piperidin-3-yl)-1H-pyrrolo[2,3-c]pyridin-1-yl)benzamide]
< 100 nM	< 100 nM	CC(C)N(C)C(=O)c1cc(F)ccc1-n1cc(C2CCN(Cc3ccc4cc(C#N)[nH]c4c3)CC2)c2ccncc21 [Example 8, 2-(3-(1-((2-cyano-1H-indol-6-yl)methyl)piperidin-4-yl)-1H-pyrrolo[2,3-c]pyridin-1-yl)-5-fluoro-N-isopropyl-N-methylbenzamide]
100 to 1000 nM	< 100 nM	CC(C)N(C)C(=O)c1cc(F)ccc1-n1cc([C@H]2CC[C@@H](N3CCCC(O)C3)CC2)c2ccncc21 (stereo partly drawn) [Example 113, 5-fluoro-2-(3-(cis-4-(3-hydroxypiperidin-1-yl)cyclohexyl)-1H-pyrrolo[2,3-c]pyridin-1-yl)-N-isopropyl-N-methylbenzamide]
< 100 nM	< 100 nM	CC(C)N(C(=O)c1cc(F)ccc1-n1cc(C2CCN(Cc3ccc4c(c3)[nH]c(=O)n4CCO)C2)c2ccncc21)C(C)C (stereo not shown) [Example 126, 5-fluoro-2-(3-(1-((1-(2-hydroxyethyl)-2-oxo-2,3-dihydro-1H-benzo[d]imidazol-5-yl)methyl)pyrrolidin-3-yl)-1H-pyrrolo[2,3-c]pyridin-1-yl)-N,N-diisopropylbenzamide]
< 100 nM	< 100 nM	Cc1nnc(C2CC2)n1-c1cc(F)ccc1-n1cc(C2CCCN(Cc3ccc4[nH]c(=O)[nH]c4c3)C2)c2ccncc21 (stereo not shown) [Example 121, 5-((3-(1-(2-(3-cyclopropyl-5-methyl-4H-1,2,4-triazol-4-yl)-4-fluorophenyl)-1H-pyrrolo[2,3-c]pyridin-3-yl)piperidin-1-yl)methyl)-1H-benzo[d]imidazol-2(3H)-one]
100 to 1000 nM	< 100 nM	CC(C)N(C)C(=O)c1cc(F)ccc1-n1cc(C2CCN(Cc3ccc(F)cc3)CC2)c2ccncc21 [Example 9, 5-fluoro-2-(3-(1-(4-fluorobenzyl)piperidin-4-yl)-1H-pyrrolo[2,3-c]pyridin-1-yl)-N-isopropyl-N-methylbenzamide]
≥ 1000 nM	< 100 nM	CC(C)N(C)C(=O)c1cc(F)ccc1-n1cc(C2CCN(Cc3ccc(NS(C)(=O)=O)cc3)CC2)c2ccncc21 [Example 23, 5-fluoro-N-isopropyl-N-methyl-2-(3-(1-(4-(methylsulfonamido)benzyl)piperidin-4-yl)-1H-pyrrolo[2,3-c]pyridin-1-yl)benzamide]
≥ 1000 nM	< 100 nM	CC(C)N(C)C(=O)c1cc(F)ccc1-n1cc(C2CCC(N(C)C)CC2)c2ccncc21 (single isomer, unassigned) [Example 54, 2-(3-(4-(dimethylamino)cyclohexyl)-1H-pyrrolo[2,3-c]pyridin-1-yl)-5-fluoro-N-isopropyl-N-methylbenzamide]
100 to 1000 nM	< 100 nM	CC(C)N(C)C(=O)c1cc(F)ccc1-n1cc(C2CCN(Cc3ccc(C#N)cc3)CC2)c2ccncc21 [Example 12, 2-(3-(1-(4-cyanobenzyl)piperidin-4-yl)-1H-pyrrolo[2,3-c]pyridin-1-yl)-5-fluoro-N-isopropyl-N-methylbenzamide]
